Earlier results, collected in patent publication US20210299077A1, “LIPOSOMAL REDUCED GLUTATHIONE (LRG) IN COMBINATION WITH IVERMECTIN FOR THE TREATMENT OF COVID-19” (Your Energy Systems, LLC, priority 2020, published 2021).
Where two headings read alike, the source gives them in different places.

How the values were obtained:
[1] = tested on: influenza viruses; details: 300 mg twice a day for 5 days
[2] = tested on: SARS-CoV-2
[3] = patients receiving remdesivir
[4] = tested on: COVID-19; details: COVID-19 patients
[5] = tested on: SARS-CoV; details: mouse SARS-CoV model
[6] = tested on: SARS-CoV; details: in vitro studies
[7] = single oral dose of 2000 mg

For `CC(=O)Oc1ccccc1C(=O)Nc1ncc([N+](=O)[O-])s1` [NTZ, Nitazoxanide], the “symptoms and infectious viral load” value [1] is given as “reduction of symptoms and infectious viral load” and the tolerability [1] is given as “well tolerated”.

For `CCN(CCO)CCCC(C)Nc1ccnc2cc(Cl)ccc12` (stereo not shown) [hydroxychloroquine], the “in-vitro activity against SARS-CoV-2” value [2] is given as “relatively higher potency against SARS-CoV-2”.

For `CCC(CC)COC(=O)[C@H](C)N[P@](=O)(OC[C@H]1O[C@@](C#N)(c2ccc3c(N)ncnn23)[C@H](O)[C@@H]1O)Oc1ccccc1` [Remdesivir], the adverse events [3] is listed as “nausea, vomiting, rectal bleeding, and elevated liver enzymes”.

In the case of `CCN(CC)CCCC(C)Nc1ccnc2cc(Cl)ccc12` (stereo not shown) [chloroquine], the “clinical and virologic outcome versus a comparison group” value [4] is given as “clinical and virologic benefit” and the “efficacy in inhibiting viral replication” value [5] is given as “did not show efficacy”.

In the case of `O=C(Nc1ccc([N+](=O)[O-])cc1Cl)c1cc(Cl)ccc1O` [niclosamide], the “inhibition of SARS-CoV replication” value [6] is listed as “able to inhibit SARS-CoV replication at a micromolar concentration”, the maximum serum concentration [7] is listed as 0.25 to 6.0 µg/mL and the maximum serum concentration ([7]; same range in μM) is listed as 0.76 to 18.3 µM. For the same compound, the aqueous solubility was “limited aqueous solubility”.
